From patent publication EP4786454A1, “HETEROARYL DERIVATIVE AND USE THEREOF” (priority 2023, dated 2025)

Legend:
[1] = Plasma protein binding rate, equilibrium dialysis (rat plasma); format: in vitro ADME, Sprague-Dawley rats; conditions: r (Sprague-Dawley rat plasma), dialysis 4 hours at 37 °C, read-out: Unbound PPB%
Description: The protein binding rates of the compounds in the plasma of CD-1 mice, Sprague-Dawley rats, beagle dogs, cynomolgus monkeys, and human were determined using equilibrium dialysis method.
Commercially available plasma, dual-layer dialysis membrane, and equilibrium dialysis device.
The dual-layer dialysis membrane was soaked in ultrapure water for about 1 hour, removed and then divided into two parts. It was then soaked in an ethanol:water (20:80, v:v) solution for 20 minutes or placed at 2 to 8 °C, and it was valid for 1 month. Before starting the assay, the dialysis membrane was rinsed twice with ultrapure water and then soaked in ultrapure water for another 20 minutes for later use.
On the day of assay, the frozen plasma of CD-1 mice, Sprague-Dawley rats, beagle dogs, cynomolgus monkeys, and human was thawed in running cold tap water. After the plasma was completely thawed, the plasma was centrifuged at 3220×g for 5 minutes, and the suspended substances and precipitates in it were removed. The pH of the plasma was determined. The plasma with a pH in the range of 7.4 ± 0.1 was directly used, or the plasma with a pH in the range of 7.4 ± 0.1 after an adjustment with 1% phosphoric acid or 1M sodium hydroxide was used.
Preparation process of plasma samples: 597 µL of blank plasma from each of the above five species was taken, respectively. 3 µL of a compound or warfarin working solution was added, and the mixture was mixed thoroughly to give a plasma sample with a compound concentration of 2 µM and a warfarin concentration of 2 µM (n=1). The concentration of the organic phase DMSO was 0.5%. The sample was thoroughly mixed before proceeding to the next step.
Preparation process of T0 samples: 50 µL of a plasma sample containing the compound and warfarin was transferred to a sample receiving plate (n=3), and 50 µL of blank PBS was immediately added. Then, 500 µL of stop solution was added to the T0 sample of the compound and warfarin, and the mixture was stored at 2 to 8 °C, waiting to be processed later together with other dialysis-processed samples.
Dialysis process of plasma samples: 100 µL of a compound (2 µM) and warfarin (2 µM) plasma sample was added to the donor of each dialysis well (n=3), and 100 µL of blank PBS was added to the corresponding receiver of the dialysis well. The dialysis plate was placed in a 5% CO2 incubator, and incubated at 37 °C with shaking at approximately 100 rpm for 4 hours.
After the dialysis was completed, 50 µL of dialysis-processed PBS sample and dialysis-processed plasma sample (n=3) were transferred to a new 96-well plate (sample receiving plate). The corresponding volume of the corresponding blank plasma or PBS was added to the sample to make the final volume of each sample well 100 µL, with a plasma to PBS volume ratio of 1:1. All the samples were analyzed by LC-MS/MS after protein precipitation.
The formulas for calculating the unbound fraction (%Unbound), bound fraction (%Bound) and recovery fraction (%Recovery) of a compound are as follows: %Unbound = 100 ×F / T %Bound = 100 - %Unbound %Recovery = 100 ×(F + T)/ T0 wherein F is the concentration of the compound at the receiver of dialysis; T is the concentration of the compound at the supply end of dialysis; and T0 is the concentration of the compound in the plasma at time zero.

[2] = Stability in liver microsomes (human); format: in vitro ADME; conditions: h (human liver microsomes), 0.5 mg/mL, read-out: MMS Clint
Description: (§1) The purpose of this study was to evaluate the phase I metabolic stability of the assay sample in liver microsomes from CD-1 mice, Sprague-Dawley (SD) rats, beagle dogs, cynomolgus monkeys, and human.
(§2) The animal and human liver microsomes used in this assay system were purchased from Xenotech, Corning, or other qualified suppliers.
(§3) Preparation of buffer: 73.21 g of potassium phosphate dibasic trihydrate and 10.78 g of potassium dihydrogen phosphate were dissolved in 4000 mL of ultrapure water. The pH of the solution was adjusted to the range of 7.40 ± 0.10 using 10.0% phosphoric acid or 1.00 M potassium hydroxide. Its final concentration was 100 mM.
(§4) Preparation of working solutions: An assay sample powder was prepared into a 10.0 mM stock solution with DMSO, and then further diluted with a suitable organic solvent. The control compounds testosterone, diclofenac, and propafenone were prepared into 10.0 mM stock solutions using DMSO, and then further diluted with a suitable organic solvent.
(§5) Preparation of liver microsome solution: Microsomes of various species were diluted with 100 mM potassium phosphate buffer to a working solution of 0.56 mg/mL. The final concentration of microsomes in the reaction system was 0.500 mg/mL. Detailed preparation procedures were described in the experimental records.
(§6) Preparation of reduced nicotinamide adenine dinucleotide phosphate (NADPH) solution: An appropriate amount of reduced nicotinamide adenine dinucleotide phosphate was dissolved in magnesium chloride solution, and the mixture was shaken to mix well. The final concentrations in the reaction system were 1.00 mM NADPH and 1.00 mM magnesium chloride, respectively. Detailed preparation procedures were described in the experimental records.
(§7) Preparation of stop solution: The stop solution was prepared using acetonitrile containing internal standards (tolbutamide and labetalol). The prepared stop solution was stored at 2.0 to 8.0 °C in a refrigerator. Detailed preparation procedures were described in the experimental records. […]

[3] = Stability in liver microsomes (monkey); format: in vitro ADME, cynomolgus monkeys; conditions: c (cynomolgus monkey liver microsomes), 0.5 mg/mL, read-out: MMS Clint
Description: as §1, §2, §3, §4, §5, §6, §7

SMILES | fraction unbound at 4 h, 2 µM [1] | CLint scaled at 1 µM [2] | CLint scaled at 1 µM [3]
CC(C)(C)CC(=O)Nc1nc2c(F)cc(C#N)cn2c1C1=CCCC1 [Compound 3] | 0.097 | 1.14 L/h/kg | 7.74 L/h/kg
CC(C)(C)CC(=O)Nc1nc2c(F)cc(C#N)cn2c1-c1ccc(OC(F)(F)F)cc1 [Compound 1] | 0.071 | 1.8 L/h/kg | 7.8 L/h/kg
CC(C)(C)CC(=O)Nc1nc2c(F)cc(C#N)cn2c1C12CC(C1)C2 [Compound 5] | 0.166 | < 0.516 L/h/kg | 0.918 L/h/kg
